How the values were obtained:
[1] = Electrochemical properties (cyclic voltammetry, impendency); format: physicochemical
Excerpt: The cyclic voltammetry (CV) curve of 5 kD-PEG-KA7/PEDOT:PSS is typical of PEDOT:PSS-based materials, showing the oxidation peak between +500 mV and +650 mV and reduction occurring between −100 mV and −50 mV (FIG. 3A). The structure-function relationship between chemical composition of the modular system and electrochemical properties was investigated

[2] = Hydrogel formation by mixing PEG-peptide conjugate with anionic polymer; format: physicochemical; conditions: (BX)n oligopeptide coupled to PEG-5 k (FIG. 1B)
Experimental: 14-kD-heparin ([…], 2.5 mM) and star-PEG-peptide conjugates (6.25 mM, 3.125 mM) were dissolved in physiologic phosphate buffer solution (1×PBS) water or cell culture medium with 2% fetal bovine serum (FBS). These solutions were dissolved in a ratio of 1:4 heparin:star-PEG-peptide-conjugate by obtaining 0.5 mM or 5 mM 14-kD-heparin and 2.5 mM or 5 mM star-PEG-peptide. The ligand/mol ratio was 2:1, 1:1 and 1:5 relative to the mol ratio of 14-kD-heparin and the star-PEG-peptide-conjugate. The mixtures were incubated within a time frame of one hour to overnight at room temperature […]. The gelling time spanned from present up to several hours depending on the applied peptide motif. A hydrogel was formed when it survived the addition of physiological phosphate buffer solution (1×PBS) pH 7.4 to the mixture after the incubation of the mixture over the prior night without mixing with the added solution.
L1-(BX)n peptides comprising a (BX)n peptide selected from KA7, KA5, KA3, KS7, KG7, RA7, and RG7, where X is alanine, glycine or serine (FIG. 1B), were synthesized. The thiol group of cysteine was used to link the peptides to maleimide-functionalized PEG by Michael-type addition reaction, while the tryptophan was used to facilitate the monitoring during HPLC purification and quantification (supporting information). It was first tested whether sulfated oligosaccharide could be replaced by PEDOT:PSS to form a stable hydrogel. starPEG-KA7 in PBS was mixed with PEDOT:PSS aqueous solution to final concentrations of 2.5 mM and 1%, respectively. […] Without conjugation to the oligopeptide, neither maleimide-functionalized nor amino-functionalized PEG formed a hydrogel with PEDOT:PSS.
Moreover, it is much easier to separate a linear PEG chain with two peptides from that with only one peptide, as compared to purify the starPEG with 4 peptides from a mixture of lower degree of modification. Therefore, in the following study, the hydrogel formation using linear PEG-peptides was investigated. […] To incorporate a cell adhesive motiv into the modular network, the RGDSP (SEQ ID NO: 25) sequence was added as part of the linker to the KA7 oligopeptide. […] L2 contains the RGDSP (SEQ ID NO: 25) sequence.
To test whether the non-covalent assembling approach can also be applied to other conductive polymers, the hydrogel formation using PEG-peptide or starPEG-peptide with graphene derivatives was investigated. While graphene has very poor water solubility, graphene oxide (GO) was used. […] Apparently, the carboxylic acid presented on graphene is not sufficient to form stable crosslinking with positively charged peptide-polymer.
Reducing GO in the present of PSS also led to water-soluble and conductive material rGO/PSS. Hydrogel formation using rGO:PSS or rGO:PEDOT:PSS (FIG. 5A) was tested. […]

[3] = Drug encapsulation and release from conductive hydrogels; format: physicochemical
Experimental: Because the networks of PEG-peptide/PEDOT:PSS hydrogel and the PEG-peptide/rGO:PEDOT:PSS hydrogels are amphipathic, they can bind to both hydrophobic and charged hydrophilic compounds. The encapsulation of hydrophilic and hydrophobic drug compounds was tested. PEDOT:PSS was premixed with either hydrophilic compound doxorubicin or hydrophobic compound paclitaxel, followed by adding 5 kD-PEG-KA7. […] Doxorubicin can be encapsulated with a concentration of 0.8 mg/mL, while 0.1 mg/mL paclitaxel can be encapsulated into the hydrogel. Paclitaxel in excess formed precipitate at the bottom. rGO:PEDOT:PSS was premixed with either doxorubicin or paclitaxel, followed by adding starPEG-KA7. […] Doxorubicin can be encapsulated with a concentration as high as 0.8 mg/mL, while 1.0 mg/mL paclitaxel can be encapsulated into the hydrogel. The hydrogels loaded with drugs were then incubated in PBS, and the release of drugs was monitored.

HeLa cells = test: Cytotoxic effect of drug released from drug-encapsulating hydrogels; format: cell-based; conditions: drug released from rGO:PEDOT:PSS/starPEG-KA7 hydrogels, diluted 10× or 100×
Experimental: The released compounds were diluted 10× or 100× times for the treatment.

[4] = 5 kD-PEG-KA7/PEDOT:PSS hydrogel
[5] = rGO:PEDOT:PSS/starPEG-KA7 hydrogel
[6] = the hydrogel (description, type not specified)

Compound: heparin
- effect on conductivity of hydrogel ([1]; 1 mM heparin in hydrogel of 1% PEDOT:PSS and 2.5 mM starPEG-KA7, versus 1% PEDOT:PSS and 2.5 mM 5 kD-PEG-KA7): enhanced the conductivity

Compound: KAKAKAKAKA [KA5]
- hydrogel formation with PEDOT:PSS [2]: formed homogeneous hydrogels

Compound: CC(=O)O[C@H]1C(=O)[C@@]2(C)[C@H]([C@H](OC(=O)c3ccccc3)[C@]3(O)C[C@H](OC(=O)[C@H](O)[C@@H](NC(=O)c4ccccc4)c4ccccc4)C(C)=C1C3(C)C)[C@]1(OC(C)=O)CO[C@@H]1C[C@@H]2O [paclitaxel]
- concentration that can be encapsulated [3, 4]: 100 µg/mL
- concentration that can be encapsulated [3, 5]: 1000 µg/mL
- concentration that can be encapsulated [3, 6]: 1000 µg/mL
- effect on HeLa cells (HeLa cells): cytotoxic effect

Compound: KSKSKSKSKSKSKS [KS7]
- hydrogel formation with PEDOT:PSS [2]: formed homogeneous hydrogels

Compound: RARARARARARARA [RA7]
- hydrogel formation with PEDOT:PSS [2]: formed homogeneous hydrogels

Compound: CWGGRGDSP [L2, 14]
- change of impendency / conductivity compared to 5 kD-PEG-KA7/PEDOT:PSS ([1]; alanine replaced by serine, or RGDSP added within linker): minor effect on the conductivity

Compound: KAKAKAKAKAKAKA [KA7]
- hydrogel formation with PEDOT:PSS [2]: formed homogeneous hydrogels

Compound: COc1cccc2c1C(=O)c1c(O)c3c(c(O)c1C2=O)C[C@@](O)(C(=O)CO)C[C@@H]3O[C@H]1C[C@H](N)[C@H](O)[C@H](C)O1 [Doxorubicin, doxorubicin]
- concentration that can be encapsulated [3, 4]: 800 µg/mL
- concentration that can be encapsulated [3, 5]: 800 µg/mL
- concentration that can be encapsulated [3, 6]: 800 µg/mL
- effect on HeLa cells (HeLa cells): cytotoxic effect
